Counter-ions that a name gives are not always drawn.
What was measured:
[1] = Stability of the active ingredient upon storage (general statement); format: physicochemical; settings: particularly in solution
[2] = Water solubility in micellar solutions of Polysorbate 80 USP; format: physicochemical; settings: for Solubility: 25° C., pH 5.0, based on 88.8% activity
Experimental: This temperature dependence of water solubilty of active ingredient is overcome by the use of sufficient concentration of amphiphile above the cmc such that the solubility of active ingredient is […] at said lowest temperature. The water solubility of active ingredients increases with increasing concentration above the cmc as is shown below for levonantradol in micellar solutions of Polysorbate 80 USP at pH 5.0 and 25° C.

[3] = accelerated stability studies, at least nine weeks, 37° C.
Experimental: The procedure comprises dissolving the Polysorbate 80 USP in about 60% of the required water (previously degassed to remove dissolved air) at room temperature. […] The pharmaceutical necessities; i.e., mannitol, sodium citrate and sodium metabisulfite were then added together with about 20-25% of the remaining volume of water required. The pH was adjusted to 5.5 by addition of hydrochloric acid (10%) and the balance of water then added. The resulting formulation was made sterile by filtration and stored in amber vials sealed under a nitrogen atmosphere.
The samples are analyzed for activity by a HPLC method using a Chromegabond C-8 column (silica silylated with octyltrichlorosilane, available from E. S. Industries, 8 South Maple Avenue, Marlton, N.J. 08053). The column is 4.6 mm I.D.×30 cm.; the mobile phase is 60% acetonitrile-40% phosphate buffer (0.05 M, pH 6.3) and the flow rate is 2 ml. per minute. Detection is by UV at 210 nm.

Compound	stability upon storage [1]	water solubility ([2]; with decreasing temperature)	stability in micellar solutions [3]	Solubility ([2]; 0.1% (w/v) Polysorbate 80 USP) [µg/mL]	Solubility ([2]; 0.2% (w/v) Polysorbate 80 USP) [µg/mL]	Solubility ([2]; 0.3% (w/v) Polysorbate 80 USP) [µg/mL]	Solubility ([2]; 0.4% (w/v) Polysorbate 80 USP) [µg/mL]	Solubility ([2]; 0.5% (w/v) Polysorbate 80 USP) [µg/mL]	Solubility ([2]; 0.8% (w/v) Polysorbate 80 USP) [µg/mL]	Solubility ([2]; 1.0% (w/v) Polysorbate 80 USP) [µg/mL]	Solubility ([2]; 1.5% (w/v) Polysorbate 80 USP) [µg/mL]	Solubility ([2]; 2.0% (w/v) Polysorbate 80 USP) [µg/mL]	Solubility ([2]; 2.5% (w/v) Polysorbate 80 USP) [µg/mL]	Solubility ([2]; 3.0% (w/v) Polysorbate 80 USP) [µg/mL]	Solubility ([2]; 3.5% (w/v) Polysorbate 80 USP) [µg/mL]	Solubility ([2]; 4.0% (w/v) Polysorbate 80 USP) [µg/mL]	Solubility ([2]; 4.5% (w/v) Polysorbate 80 USP) [µg/mL]	Solubility ([2]; 5.0% (w/v) Polysorbate 80 USP) [µg/mL]	Solubility ([2]; 7.0% (w/v) Polysorbate 80 USP) [µg/mL]	water solubility ([2]; presence of a relatively low concentration of Polysorbate 80)
CC(=O)Oc1cc(O[C@H](C)CCCc2ccccc2)cc2c1[C@@H]1C[C@H](O)CC[C@H]1[C@H](C)N2 [Levonantradol, [6S-[3S*,6-alpha,6a-alpha,9-alpha,10a-beta]]-5,6,6a,7,8,9,10,10a-octahydro-6-methyl-3-(1-methyl-4-phenylbutoxy)-1,9-phenanthridinediol 1-acetate, hydrochloride]	subject to decomposition upon storage	reduced water solubility with decreasing temperature	completely stable	–	–	–	–	–	–	–	–	–	–	–	–	–	–	–	–	–
CC(=O)Oc1cc(O[C@H](C)CCCc2ccccc2)cc2c1[C@@H]1C[C@H](O)CC[C@H]1[C@H](C)N2 [Levonantradol.HC1, [6S-[3S*,6-alpha,6a-alpha,9-alpha,10a-beta]]-5,6,6a,7,8,9,10,10a-octahydro-6-methyl-3-(1-methyl-4-phenylbutoxy)-1,9-phenanthridinediol 1-acetate, hydrochloride]	–	–	–	2.2	67	130	290	430	880	1230	2040	2850	3810	4440	5600	6300	6990	7550	11280	markedly increased
CC(=O)Oc1cc(O[C@H](C)CCCc2ccccc2)cc2c1[C@@H]1C[C@H](O)CC[C@H]1[C@H](C)N2C [N-methyllevonantradol]	subject to decomposition upon storage	reduced water solubility with decreasing temperature	–	–	–	–	–	–	–	–	–	–	–	–	–	–	–	–	–	–
